# Reference: article PMC4701221, “Novel Promising Estrogenic Receptor Modulators: Cytotoxic and Estrogenic Activity of Benzanilides and Dithiobenzanilides” (PLoS ONE, 2016)
# Key:
# [1] = system: A549 cells; assay: MTT assay, A549; type: cell-based; settings: Homo sapiens, 72 h, lung adenocarcinoma, read-out: Cytotoxic activity IC50, A549
# Protocol: (§1) The cell lines used in the cytotoxicity study, besides MCF-12A, were purchased from European Collection of Cell Culture (ECACC, Salisbury, UK): HEK293 (human embryonic kidney, ATTC no. CRL-1573), A549 (Human lung carcinoma, ECACC no. 86012804), CCD39Lu (Human lung fibroblasts, ECACC no. 90110512), MCF-7 (Human breast adenocarcinoma, ECACC no. 86012803) and MDA-MB-231 (Human breast adenocarcinoma ECACC no. 92020424). Cell lines were cultured in DMEM medium without phenol red and supplemented with 10% (v/v) FBS, 1% penicillin-streptomycin and 1% L-glutamine. MCF-12A (ATTC no. […]) was purchased from American Type Culture Collection (ATCC Manassas, VA 20110 USA). MCF-12A cells were kept in 1:1 mixture of Dulbecco’s modified Eagle’s medium and Ham’s F12 medium, 20 ng/ml human epidermal growth factor, 100 ng/ml cholera toxin, 0.01 mg/ml bovine insulin, 500 ng/ml hydrocortisone and 5% horse serum. All cell lines were cultured at 37°C, in a humidified atmosphere containing 5% CO2.
# (§2) Compounds were dissolved in DMSO to the final concentration of […]. A549, CCD39Lu, MCF-7, MDA-MB-231 and MCF-12A cells were seeded in 96 wells plates at density 2x10^4 cells/well and incubated overnight as described above. Subsequently, cells were treated with tested compounds at concentrations: 100 μM; 50 μM; 25μM; 12.5μM; 6 μM; 3 μM; 1.5 μM. […] Cells were incubated 72 h at 37°C in a humidified atmosphere containing 5% CO2 in the cell culture media appropriate for each cell line. Then, the medium was aspirated and 170 μl MTT solution (5mg/ml) was added to each well. Plates were incubated for 2 hours at 37°C, and then plates were centrifuged at 1200 rpm for 3 minutes. The formazan crystals were dissolved in 200 μl DMSO and plates were further agitated on a plate shaker at 300–500 rpm for 10 minutes. Absorbance at 570 nm (with reference wavelenght 650 nm) was measured using a plate reader (Biotek Instruments, Elx-800). Cell viability was calculated as a percentage relative to the control.
# [2] = biological target: T1, estrogen receptor (Homo sapiens, UniProt P03372); assay: Estrogen Receptor luciferase assay in MCF-7 cells (endogenous ER); type: cell-based; settings: MCF-7 transfected with p3xERRE/ERE-luciferase, Fig 3C
# T1 construct: MCF-7 cells, which endogenously express ERα receptor; endogenous in cells; host or cells: MCF-7
# T1 sequence (P03372 1-595): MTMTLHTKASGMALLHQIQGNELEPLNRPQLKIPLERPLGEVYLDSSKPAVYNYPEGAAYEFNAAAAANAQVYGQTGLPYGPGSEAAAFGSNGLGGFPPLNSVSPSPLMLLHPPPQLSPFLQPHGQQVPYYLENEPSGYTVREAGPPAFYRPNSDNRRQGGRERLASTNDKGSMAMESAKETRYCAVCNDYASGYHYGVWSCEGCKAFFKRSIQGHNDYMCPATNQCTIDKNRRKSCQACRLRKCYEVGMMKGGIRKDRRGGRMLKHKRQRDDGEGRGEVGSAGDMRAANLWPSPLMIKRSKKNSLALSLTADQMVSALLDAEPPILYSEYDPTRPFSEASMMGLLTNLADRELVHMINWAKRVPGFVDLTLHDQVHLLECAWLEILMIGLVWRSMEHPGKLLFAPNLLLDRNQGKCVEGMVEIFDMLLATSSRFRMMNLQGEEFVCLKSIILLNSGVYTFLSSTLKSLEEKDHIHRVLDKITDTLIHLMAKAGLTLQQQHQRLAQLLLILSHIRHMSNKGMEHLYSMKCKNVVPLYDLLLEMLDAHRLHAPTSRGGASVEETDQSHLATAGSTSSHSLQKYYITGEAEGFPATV
# Description: To obtain a eukaryotic vector expressing only the ER-α nuclear receptor, a construct was designed by cloning a KpnI-BamHI fragment from plasmid pEGFP-C1-ERα containing the ERα coding sequence that includes a stop signal into the pEGFP-N3 plasmid (Clontech Laboratories, Palo Alto, CA) under the control of the CMV promoter. This construction was termed pEGFP-N-ERα, and although it encoded both human ERα receptor and GFP protein, only the former is expressed. For mock transfections, pEGFP-N3 plasmid was digested with BglII and NotI and religated after polishing DNA ends to remove GFP coding sequence. Plasmid sequence was confirmed by automatic sequencing. Prior to transfection, cells were seeded in 48 well plates at density of 1.5 x 10^4 cells/well and incubated for 24 h to reach a cell confluence of 80–90%. […] MCF-7 cells, which endogenously express ERα receptor, were transfected with p3xERRE/ERE-luciferase plus the pRLTK Renilla luciferase control plasmid (95:5). Firefly and Renilla luciferase activities were measured using the Dual Luciferase Assay System (Promega, Madison, WI, USA), following a standard protocol using a Sirius L luminometer (Berthold Technologies, Bad Wildbad, Germany). Data were expressed as relative changes in luciferase activity and normalized to 100%.
# [3] = MTT assay, MCF-12A; type: cell-based; settings: human, MCF-12A cells (non-tumorigenic breast epithelial), read-out: Cytotoxic activity IC50, MCF-12A
# Protocol: as §1, §2
# [4] = system: ERα transfected HEK293 cells; assay: MTT cell viability, ERα transfected HEK293 cells; type: cell-based, human; settings: 0–100 μM, 72 h, Fig 6B
# Protocol: as §2, with “The formazan crystals were dissolved in 200 μl DMSO and plates were further agitated on a plate shaker at 300–500 rpm for 10 minutes.” left out
# Fig 6 Estrogenic and cytotoxic activity of tested compounds in HEK293 cells transfected with wild type ERα receptor or plasmids bearing mutated versions of ERα. […] Results are expressed as mean ± SEM (n = 8). * p < 0.05 was considered statistically significant. […] 48 h after transfection, cells were incubated in the presence of increasing concentrations of compounds 18 for 72 h and cell viability was measured by MTT assay. […]
smiles,measurement,setting,value
Fc1ccc(NC(=S)c2ccc(NC(=S)c3ccc(F)cc3)cc2)cc1 [Compound 18],IC50,[1],> 100 µM
same,Transcriptional (luciferase) activity in MCF-7,[2],significantly higher transcriptional activity compared to estradiol
same,IC50 at 72 h,[3],91.5 µM
same,"Cell viability, ERα transfected HEK293",[4],significantly decreased cell viability
